According to patent US20240342184A1, “USE OF ENHANCER 3C1 IN PREPARATION OF ENHANCER FOR INTERACTION BETWEEN FXR AND CASPASE 8” (CHINA PHARMACEUTICAL UNIVERSITY, priority 2021, published 2024):

Experiments:
[1] = target: T1, interaction between FXR protein and Caspase 8 protein (Homo sapiens, UniProt Q14790+Q96RI1); assay: Co-IP/Western blot of the FXR-Caspase 8 interaction in healthy L02 hepatocytes; type: cell-based; details: 3C1 at 1, 10, 100 μM for 2 h, FIG. 2
T1 construct: endogenous in cells; host or cells: L02 human hepatocyte cell line
T1 sequence (Q96RI1 whole entry): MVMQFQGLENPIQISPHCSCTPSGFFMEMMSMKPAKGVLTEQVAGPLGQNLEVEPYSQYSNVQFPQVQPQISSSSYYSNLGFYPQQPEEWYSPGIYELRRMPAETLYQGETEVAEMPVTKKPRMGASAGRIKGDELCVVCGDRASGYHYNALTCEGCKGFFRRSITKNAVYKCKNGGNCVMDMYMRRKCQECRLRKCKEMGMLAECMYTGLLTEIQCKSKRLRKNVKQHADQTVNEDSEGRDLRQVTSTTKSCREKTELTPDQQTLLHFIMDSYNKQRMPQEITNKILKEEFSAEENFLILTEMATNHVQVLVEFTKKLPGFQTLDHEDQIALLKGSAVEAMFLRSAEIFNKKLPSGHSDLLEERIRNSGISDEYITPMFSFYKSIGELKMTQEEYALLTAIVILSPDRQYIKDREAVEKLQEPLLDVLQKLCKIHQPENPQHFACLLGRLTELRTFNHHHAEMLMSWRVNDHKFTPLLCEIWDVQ
T1 sequence (Q14790 217-479): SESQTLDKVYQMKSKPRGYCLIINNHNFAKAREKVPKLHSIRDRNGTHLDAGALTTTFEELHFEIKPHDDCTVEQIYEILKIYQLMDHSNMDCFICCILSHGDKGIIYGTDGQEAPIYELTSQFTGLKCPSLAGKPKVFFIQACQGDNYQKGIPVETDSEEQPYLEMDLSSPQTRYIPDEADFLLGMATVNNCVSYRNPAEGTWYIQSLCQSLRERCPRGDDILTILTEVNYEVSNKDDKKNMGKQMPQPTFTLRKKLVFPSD
Experimental: 1) Cells were washed twice with pre-chilled phosphate-buffered saline (PBS), an appropriate amount of pre-chilled PBS was added for the last time, a pre-chilled cell scraper was used to scrape the cells from a culture dish or a culture flask, and a suspension was transferred to a 1.5 ml electropolished (EP) tube. After centrifugation at 4° C. and 4000 rpm for 5 min, a supernatant was discarded, an appropriate amount of an NP40 lysis buffer was added, a mixture obtained was shaken evenly, and the cells were ultrasonicated for a total of 3 times (5 s per time) until the cells were completely lysed. After centrifugation at 4° C. and 14000 g for 10 min, a supernatant was transferred to a new EP tube, to obtain a protein lysis buffer. A protein concentration was determined through a bicinchoninic acid (BCA) assay.
2) 25 μl of Protein A Beads was taken and blocked with 5% bovine serum albumin (BSA) for 1 h at room temperature, and then washed with the PBS for 3 times, and a supernatant was discarded after centrifugation at 14000 g for 1 min each time. The protein lysis buffer with a uniform concentration was added to the Beads, rocking-turn was performed at 4° C. for 1 h, and a sample was pre-cleared. After centrifugation at 14000 g for 1 min, a supernatant was transferred to a new EP tube. […]

[2] = target: T1, interaction between FXR protein and Caspase 8 protein; assay: Co-IP/Western blot of the FXR-Caspase 8 interaction in apoptotic L02 hepatocytes; type: cell-based; details: L02 cells, ActD/TNFα-induced apoptosis, 3C1 at 1, 10, 100 μM for 2 h, FIG. 3
Experimental: A human hepatocyte cell line L02 was cultured in a complete DMEM containing 10% FBS, and placed in a culture incubator containing 5% CO2 for culturing at 37° C., and cells in a logarithmic growth phase were inoculated in a 12-well plate at a density of 2×10^5 cells/well. After 24 h, an apoptosis model was constructed by means of human tumor necrosis factor-related apoptosis-inducing ligand (TRAIL), Actinomycin D (ActD)/tumor necrosis factor alpha (TNFα), and cycloheximide (CHX)/Fas ligand (FasL) methods respectively. Cells were treated with TRAIL at 50 ng/ml for 0, 2, 4, 8, 12, and 24 h, respectively. […] Cells were incubated with ActD/TNFα for 0, 1, 2, 4, 8, and 12 h, respectively. […] Cells were incubated with […] for 0, 2, 4, and 8 h, respectively.
1) Cells were washed twice with pre-chilled phosphate-buffered saline (PBS), an appropriate amount of pre-chilled PBS was added for the last time, a pre-chilled cell scraper was used to scrape the cells from a culture dish or a culture flask, and a suspension was transferred to a 1.5 ml electropolished (EP) tube. […] A protein concentration was determined through a bicinchoninic acid (BCA) assay. […]

[3] = test system: human hepatocyte cell line L02; assay: MTT cell viability assay in induced hepatocyte apoptosis models; type: cell-based; details: 3C1 at 1, 10, 100 μM, L02 cells
Experimental: A human hepatocyte cell line L02 was cultured in complete medium DMEM containing 10% fetal bovine serum (FBS), and placed in a culture incubator containing 5% CO2 at 37° C., and cells in a logarithmic growth phase were inoculated in a 96-well plate at a density of 5×10^3 cells/well. The cells were transfected at 50 nM after 24 h. Hepatocyte apoptosis was induced 48 h later after the transfection. […]
In addition to an apoptosis reagent, the compound 3C1 of different concentrations (1 μM, 10 μM, and 100 μM) was administered.
After the time of administration, 20 μl of MTT (5 mg/ml) was added to each well, the cells were further incubated at 37° C. for 4 h, a culture medium was aspirated and discarded, 150 μl of dimethyl sulfoxide (DMSO) was added to each well, incubation was performed at 37° C. for 10 min, and the absorbance was measured at 490 nm.

C57BL/6 mice = assay: CCl4-induced liver injury of mice; type: in vivo, mouse; details: CCl4-injected C57BL/6 mice, 3C1 at 5 or 10 mg/kg/day i.p.
Experimental: Before the experiment, C57BL/6 mice were acclimated for one week under the conditions of, room temperature at 22-26° C. and relative humidity of 40-60%, with light alternated with darkness for 12 h. Each mouse was housed in a separate cage with free access to water and food, and their body weights were maintained at 20-22 g. Experimental groups included a blank control group, a model group, a low-dose 3C1 administration group (5 mg/kg), and a high-dose 3C1 administration group (10 mg/kg).
The C57BL/6 mice in the low-dose 3C1 administration group and the high-dose 3C1 administration group were pre-administered with intraperitoneal injections of 3C1 at a dose of 5 mg/kg/day or 10 mg/kg/day, and the mice in other groups were subject to vehicle control. 3 days later, liver injury was induced by intraperitoneal injections of CCl4, and the control group was administered with mineral oil. The mice were euthanized 48 h later. Blood and livers of the mice were collected.
After standing at room temperature for 0.5 h, whole blood was centrifuged at 8000 rpm for 10 min, and a supernatant was transferred to a new electropolished (EP) tube to obtain serum. Alanine transaminase (ALT) and aspartate transaminase (AST) were detected according to instructions of ALT and AST assay kits.
1) 20 mg of a liver tissue sample from each mouse was weighed, 1.0 ml of RNAiso Plus was added, the samples were homogenized, and a homogenate was transferred to a centrifuge tubes, kept standing at room temperature for 5 min, and centrifuged at 4° C. and 12000 g for 5 min.
2) 800 μl of a supernatant was transferred, 160 μl of chloroform was added, and a mixture obtained was vigorously shaken for 15 sec, and then centrifuged at 12000 g for 15 min after standing at room temperature for 5 min. A sample included three layers: a bottom layer as a yellow organic phase, an upper layer as a colorless aqueous phase, and an intermediate layer.
3) 300 μl of the upper aqueous phase was carefully transferred to a new tube, 300 μl of isopropanol was added, after inverting and mixing, a mixture obtained stood at room temperature for 10 min, and after centrifugation at 12000 g for 10 min, the supernatant was discarded.
An RNA precipitate was washed with 1.0 ml of pre-chilled 75% ethanol and then centrifuged at 12000 g for 5 min, and a supernatant was discarded to obtain total RNA, which was reconstituted with 20 μl of DEPC water and diluted to […] after quantification.
According to a system ratio indicated in the specification, the RNA solution and kit components were prepared into a system with a total volume of 20 μl, and a programmed temperature was set for reverse transcription. Specific ratio requirements were as follows:
The PCR system is as follows:
Wuhan Servicebio Co., Ltd. was entrusted to complete H&E staining and Sirius Red staining.

Which “interaction between FXR protein and Caspase 8 protein in healthy cells” value [1] does the source give for `Cc1n[nH]c(=S)nc1Nc1ccc(F)c(Cl)c1` [Compound 3C1] here?
The value was “obviously enhanced the interaction between FXR protein and Caspase 8 protein in healthy cells in a dose-dependent manner”.

And the “interaction between FXR protein and Caspase 8 protein in apoptotic hepatocytes” value [2]?
The value was “could reverse this reduction”.

And the “anti-apoptotic effect (cell viability, MTT)” value (“anti-apoptotic effect” below) ([3]; ActD 30 min then TNFα 20 ng/ml for 8 h)?
The value was “significant anti-apoptotic effects”.

And the “anti-apoptotic effect” value ([3]; CHX 50 μM 30 min then FasL 50 ng/ml for 8 h)?
The value was “significant anti-apoptotic effects”.

What about the “anti-apoptotic effect” value ([3]; TRAIL 50 ng/ml for 24 h) of the same compound?
Its value is “significant anti-apoptotic effects”.

And the “serum ALT level” value (C57BL/6 mice; FIG. 5A)?
The value was “significantly reduced the elevated levels”.

What about the “serum AST level” value (C57BL/6 mice; FIG. 5B) of the same compound?
Its value is “significantly reduced the elevated levels”.

And the “liver pathology, H&E staining” value (C57BL/6 mice; FIG. 5C)?
Its value is “significant remission in the disorders of liver lobule structures, decreased infiltration of inflammatory cell, and less collagen fibers in the portal area”.

And the “liver pathology, Sirius Red staining (red collagen fibers)” value (C57BL/6 mice; FIG. 5D)?
The value was “hyperplasia of red collagen fibers in the livers was significantly alleviated”.

And the “liver Timp1 mRNA level” value (C57BL/6 mice; RT-PCR, P<0.001, FIG. 5E)?
Its value is “significantly reduced their mRNA levels (P<0.001) in a dose-dependent manner”.

What about the “liver Timp2 mRNA level” value (C57BL/6 mice; RT-PCR, P<0.001, FIG. 5F) of the same compound?
The value was “significantly reduced their mRNA levels (P<0.001) in a dose-dependent manner”.
